# According to US20220370553A1, “PREBIOTIC-INDUCED ANTI-TUMOR IMMUNITY” (Sanford Burnham Prebys Medical Discovery Institute, priority 2019, published 2022):
# Experiments:
# [1] = system: serum cytokines and chemokines; assay: Serum cytokine and chemokine detection (LEGENDplex); format: in vivo, mice
# Text: Graphs show the mean±s.e.m. *P<0.05, ****P<0.0001 by two-tailed t-test or Mann-Whitney U test.
# Serum cytokine and chemokine detection. Cytokines and chemokines in the sera of naïve or tumor-bearing mice treated with or without mucin were quantified using the LEGENDplex™ mouse inflammation panel and mouse proinflammatory chemokine panel (BioLegend), respectively. All data were collected on an LSRFortessa (BD Biosciences) and analyzed using LEGENDplex™ software (BioLegend).
# Levels of circulating cytokines and chemokines were quantified in mucin-treated mice both before and after tumor inoculation.
# [2] = system: bone marrow-derived dendritic cells (BMDCs); assay: Activation of bone marrow-derived dendritic cells in vitro; format: cell-based, murine; settings: 24 h, 0.05 and 0.5 mg/ml
# Text: Data are representative of two independent experiments. Graphs show the mean±s.e.m. *P<0.05, **P<0.005, ***P<0.001, ****P<0.0001 one-way ANOVA with Tukey's correction.
# Bone Marrow-Derived Dendritic Cells (BMDCs).
# Yumm1.5 tumors = assay: Growth of Yumm1.5 melanoma tumors in prebiotic-fed mice; format: in vivo, C57BL/6 mice; settings: mucin 3% in drinking water or inulin 15% w/w chow from 2 weeks prior to inoculation of 1×10^6 Yumm1.5 cells
# Text: FIG. 2B, Quantification of tumor-infiltrating effector (CD44hi) CD4+, CD8+ and CD45+ T cells from mice treated as in FIG. 2A (n=10). FIG. 2C, Quantification of tumor-infiltrating, IFN-g-producing CD4+ T cells from mice treated as in FIG. 2A (n=10). FIG. 2D, Quantification of tumor-infiltrating total DCs and subsets in mice treated as in FIG. 2A (n=10). FIG. 2E, MFI of MHC class I and MHC class II on DCs from the tumors of mice treated as in FIG. 2A (n=10). […] Graphs show the mean s.e.m. *P<0.05, **P<0.005, ***P<0.001,****P<0.0001 by two-way ANOVA with Tukey's correction (A) and by one-way ANOVA with Tukey's correction (B-E).
# [3] = system: MC-38 mouse colorectal cancer cells; assay: Growth of MC-38 colorectal cancer tumors in prebiotic-fed mice; format: in vivo, C57BL/6 mice; settings: 3% mucin in drinking water or 15% inulin diet from two weeks prior to inoculation
# Text: MC-38 mouse colorectal cancer cells (1×10^6) were inoculated, and diets were continued after inoculation.
# A. muciniphila = assay: Anaerobic fecal cultures with 1% prebiotic, 16S rDNA quantification; format: cell-based, human; settings: in most of the cultures
# Experimental: (§1) Fecal samples derived from 12 healthy human subjects were cultivated in the presence or absence of 1% prebiotic. 16S rDNA sequences corresponding to Bifidobacterium, Bacteroides and Akkermansia muciniphila were quantified. Data are representative of three independent experiments. Graphs show the mean±s.e.m. *P<0.05, **P<0.005, ***P<0.001, ****P<0.0001 by one-way ANOVA with Tukey's correction.
# (§2) Anaerobic fecal cultures. […] Anaerobic cultures (9% H2, 81% N2) were grown statically for 3-4 days at 37° C. and grown to approximate saturation.
# (§3) Chemically-defined medium (CDM). CDM contains 50 mM HEPES, 2.2 mM KH2PO4, 10 mM Na2HPO4, 60 mM NaHCO3, 4 mM of each amino acid, except leucine (15 mM), 10 mL ATCC, Trace Mineral Supplement. CDM contained nucleoside bases (100 mg/L), inosine, xanthine, adenine, guanine, cytosine, thymidine and uracil (400 mg/L). CDM contained choline (100 mg/L), ascorbic acid (500 mg/L), lipoic acid (2 mg/L), hemin (1.2 mg/L) and myo-inositol (400 mg/L). Resazurin (1 mg/L) was added to visually monitor dissolved oxygen. The pH of the media was adjusted to 7.4.
# (§4) Fecal samples derived from 12 healthy, vegetarian human subjects were cultivated in a chemically-defined medium the presence or absence of 1% prebiotic. Anaerobic cultures (9% H2, 81% N2) were grown statically for 3-4 days at 37° C. and grown to approximate saturation.
# Bifidobacterium spp. = assay: as above; format: cell-based, human; settings: in two of these cultures
# Experimental: as §1, §2, §3, §4
# OT-I CD8+ T cells = assay: In vivo OT-I T cell assay with B16-OVA melanoma cells; parameters: species or system C57BL/6 mice; settings: mucin-treated vs control mice
# Experimental: Right dot plots show gating of CD45.1+CD8+ cells (n=6). FIG. 4B Quantification of CD45.1+OT-I CD8+ T cell number in the tumor-draining lymph nodes (TdLN) and non-draining lymph nodes (ndLN) of WT C57BL/6 mice CD45.2+ mice that were injected with B16-OVA melanoma cells (n=10). Graphs show the mean s.e.m. *P<0.05, by two-tailed t-test or Mann-Whitney U test.
# In vivo OT-I T cell proliferation assay. […] After 24 h, the mice were injected s.c. with 1×10^6 B16-OVA melanoma cells and the mice were left for 7 days. The spleen, tumor-draining lymph nodes, and non-draining lymph nodes were harvested and analyzed by flow cytometry. The proliferation of OT-1 CD8+ T cells was assessed by analysis of CFSE dilution within the population by gating on CD45.1+CD8+ T cells.
# To assess the activation and homing of tumor-specific T cells in prebiotic-treated mice, an adoptive transfer model was used with OVA-specific OT-I transgenic T cells. OVA-specific OT-I CD8+, CD45.1+ T cells were transferred into untreated or mucin-treated WT mice. Mice were injected with OVA-expressing B16F10 tumor cells, and the frequency of OVA-specific OT-I T cells was monitoring in tumor draining and non-tumor-draining lymph nodes. OT-I CD8+ T cells were more abundant in the tumor-draining lymph nodes of mucin-treated mice, compared with control mice (FIG. 4A-B).
# Bacteroides spp. = assay: Anaerobic fecal cultures with 1% prebiotic, 16S rDNA quantification; format: cell-based; settings: fecal cultures of 12 healthy human subjects, 3-4 days at 37° C.
# Experimental: as §1, §2, §3, §4
substance,measurement,setting,value
mucin,"serum levels of IL-6, IL-1a, IL-10, IL-17A and IL-23","[1]; following tumor inoculation (10 days), compared with control",reduced levels
same,serum levels of IL-1a and CXCL13,"[1]; mucin feeding for two weeks, prior to tumor inoculation",Higher levels
same,serum levels of chemokines CXCL1 and CXCL13,"[1]; tumor-inoculated mice (10 days), compared with control",Lower serum levels
same,"CD40, CD80, MHC I and MHC II on BMDCs",[2],increased
same,melanoma tumor growth,Yumm1.5 tumors,attenuated
same,growth of colon cancer MC-38 tumors,[3],not
same,relative abundance of A. muciniphila,A. muciniphila,increased
same,Bifidobacterium spp.,Bifidobacterium spp.,not
same,OT-I CD8+ T cells in tumor-draining lymph nodes,OT-I CD8+ T cells,more abundant
same,relative abundance of Bacteroides spp.,Bacteroides spp.,increased
